{"source": "paper PMC11211886", "about": "(Frontiers in Pharmacology, 2024)", "key": {"[1]": {"assay": "Single-dose PK in SD rats (IV/PO)", "design": "species or system SD rat", "details": "in vivo", "from_the_text": "For the single-dose PK study, twenty-four rats were divided into four groups, with six rats (male: female = 1:1) in each group."}, "CYP2D6": {"biological_target": "T1, CYP2D6 (Homo sapiens, UniProt P10635)", "T1 construct": "tissue Life Technologies (Durham, NC, USA); host or cells: human liver microsomes", "T1 sequence (P10635 whole entry, canonical isoform)": "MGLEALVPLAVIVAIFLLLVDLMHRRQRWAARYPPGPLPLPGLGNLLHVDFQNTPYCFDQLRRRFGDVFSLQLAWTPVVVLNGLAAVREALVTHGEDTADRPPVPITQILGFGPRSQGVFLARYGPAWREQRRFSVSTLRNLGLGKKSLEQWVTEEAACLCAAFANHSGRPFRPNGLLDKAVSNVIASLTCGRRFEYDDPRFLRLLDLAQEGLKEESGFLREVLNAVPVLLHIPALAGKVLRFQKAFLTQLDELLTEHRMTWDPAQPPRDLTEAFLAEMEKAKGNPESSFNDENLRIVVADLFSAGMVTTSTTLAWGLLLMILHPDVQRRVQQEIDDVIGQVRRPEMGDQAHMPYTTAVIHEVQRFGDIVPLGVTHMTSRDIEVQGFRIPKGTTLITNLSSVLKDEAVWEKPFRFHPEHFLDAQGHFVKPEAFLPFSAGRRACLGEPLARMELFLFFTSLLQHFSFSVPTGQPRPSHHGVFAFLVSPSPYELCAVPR", "assay": "Reversible CYP inhibition in HLM, CYP2D6 (dextromethorphan)", "type": "in vitro ADME", "details": "for enzyme activity remaining: CYP2D6, HLM", "description": "The markers used to determine the activities of CYP isoforms were phenacetin O-deethylation for CYP1A2 (probe substrate: 50 µM phenacetin), bupropion hydroxylation for CYP2B6 (probe substrate: 70 µM bupropion), paclitaxel 6α-hydroxylation for CYP2C8 (probe substrate: 10 µM paclitaxel), diclofenac 4′-hydroxylation for CYP2C9 (probe substrate: 5 µM diclofenac), S-(+)-mephenytoin 4′-hydroxylation for CYP2C19 (probe substrate: 20 µM S-(+)-mephenytoin), dextromethorphan O-demethylation for CYP2D6 (probe substrate: 6 µM dextromethorphan), chlorzoxazone 6′-hydroxylation for CYP2E1 (probe substrate: 70 µM chlorzoxazone), and testosterone 6β-hydroxylation and midazolam 1′-hydroxylation for CYP3A4/5 (probe substrate: 45 µM testosterone and 5 µM midazolam). […] Alpha-naphthoflavone (0.04 µM), 2-phenyl-2-(1-piperidinyl)propane (5 µM), quercetin (1 µM), sulfaphenazole (0.5 µM), ticlopidine (4 µM), quinidine (0.2 µM), diethyldithiocarbamate (20 µM), and ketoconazole (0.05 µM) were used as positive inhibitors of CYP1A2, 2B6, 2C8, 2C9, 2C19, 2D6, 2E1, and 3A4, respectively. The vehicle control was prepared in the same composition as inhibitor solutions but free of inhibitors. The concentrations of probe substrates were close to Km values that were determined in-house and within the range recommended by the FDA ([Huang et al., 2007]). Reaction mixtures were incubated at 37°C for 5, 20, or 30 min, depending on the probe substrates of CYP isoforms. The reactions were terminated by adding cold acetonitrile containing IS, and the terminated incubation mixtures were centrifuged at 3,000 g for 10 min before LC-MS/MS analysis."}, "OCT2": {"biological_target": "T2, OCT2 (Homo sapiens, UniProt O15244)", "T2 sequence (O15244 1-555)": "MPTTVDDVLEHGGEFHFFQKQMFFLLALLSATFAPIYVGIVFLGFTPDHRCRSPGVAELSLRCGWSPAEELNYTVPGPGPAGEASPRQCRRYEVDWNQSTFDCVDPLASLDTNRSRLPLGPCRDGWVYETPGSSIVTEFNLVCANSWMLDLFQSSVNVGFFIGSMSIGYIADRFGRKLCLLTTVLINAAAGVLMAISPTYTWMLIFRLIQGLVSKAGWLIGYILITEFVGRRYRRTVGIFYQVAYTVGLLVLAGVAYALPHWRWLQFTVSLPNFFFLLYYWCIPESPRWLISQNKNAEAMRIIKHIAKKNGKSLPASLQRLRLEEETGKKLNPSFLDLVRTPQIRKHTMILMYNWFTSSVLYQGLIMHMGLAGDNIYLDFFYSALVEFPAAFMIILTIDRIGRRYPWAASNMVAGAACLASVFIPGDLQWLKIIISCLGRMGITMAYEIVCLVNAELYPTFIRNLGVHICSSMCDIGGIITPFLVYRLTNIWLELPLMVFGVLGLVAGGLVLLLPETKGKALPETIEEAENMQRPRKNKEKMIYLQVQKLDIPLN", "assay": "OCT2 inhibition, metformin uptake in transfected HEK293 cells", "description": "The pre-incubation solutions were removed, and incubation solutions containing the inhibitors and probe substrates (or transport buffer containing an equal volume of vehicle control and probe substrates) were added and incubated at 37°C for 2 min (5 min for OATP1B3). The probe substrate for OAT1 was 4-aminohippuric acid (10 μM), for OAT3 was estrone 3-sulfate (10 μM), for OCT2 was metformin (100 μM), for OATP1B1 was β-estradiol 17-(β-D-glucuronide) (5 μM), for OATP1B3 was β-estradiol 17-(β-D-glucuronide) (10 μM), and for MATE1 and MATE2-K was tetraethylammonium (10 μM). After incubation, cells were washed three times with ice-cold transport buffer (25 mM HEPES, pH 7.4, pH 8.0 for overexpressing MATE1 and MATE2-K HEK293 cells) and lysed in distilled water. The concentrations of probe substrates were determined by LC-MS/MS, and a BCA Kit (Solarbio ®Life Sciences, Beijing, China) was used to determine the protein content in the cell lysate.\nwhere C is the concentration of the drug in the cell lysate (nM), P is the protein concentration of the cell lysate (mg/mL), and T is the incubation time (minute). Uptake ratetest compound is the uptake rate of the substrate in the presence of the test compound. Uptake ratevehicle control is the uptake rate of the substrate in the presence of the vehicle control. Uptake ratepassive is the uptake rate of the substrate in the presence of the positive inhibitor at the top test concentration."}, "Solubility": {"assay": "Solubility", "type": "physicochemical", "details": "water, pH 7.78"}, "[2]": {"details": "both sexes, SD, rat, iv, 5 mg/kg"}, "[3]": {"details": "both sexes, SD, rat, po, 1 mg/kg"}, "[4]": {"details": "both sexes, SD, rat, po, 5 mg/kg"}, "[5]": {"details": "both sexes, SD, rat, po, 25 mg/kg"}}, "note": "Several values for one entry are separate records, joined by “and”; a condition that tells them apart may be missing. Equal entries are not always repeated. Where two headings read alike, the source gives them in different places."}
{"smiles": "C[C@H](Nc1ncnc(N)c1C#N)c1cc2ncc(Cl)n2nc1-c1ccccc1", "note": "[Amdizalisib]", "values": [{"measurement": "AUC(0-inf)", "setting": "[1]; [2]", "result": 13900, "unit": "ng·h/mL"}, {"measurement": "AUC(0-t)", "setting": "[1]; [2]", "result": 13900, "unit": "ng·h/mL"}, {"measurement": "MRT", "setting": "[1]; [2]", "result": "4.6 ± 2.85", "unit": "h"}, {"measurement": "Vd", "setting": "[1]; [2]", "result": "1.68 ± 0.153", "unit": "L/kg"}, {"measurement": "clearance", "setting": "[1]; [2]", "result": "9.12 ± 6.31", "unit": "mL/min/kg"}, {"measurement": "AUC(0-inf)", "setting": "[1]; [3]", "result": 1320, "unit": "ng·h/mL"}, {"measurement": "AUC(0-t)", "setting": "[1]; [3]", "result": 1140, "unit": "ng·h/mL"}, {"measurement": "Cmax", "setting": "[1]; [3]", "result": "115 ± 79.1", "unit": "ng/mL"}, {"measurement": "MRT", "setting": "[1]; [3]", "result": "7.9 ± 5.28", "unit": "h"}, {"measurement": "AUC(0-inf)", "setting": "[1]; [4]", "result": 6130, "unit": "ng·h/mL"}, {"measurement": "AUC(0-t)", "setting": "[1]; [4]", "result": 6040, "unit": "ng·h/mL"}, {"measurement": "Cmax", "setting": "[1]; [4]", "result": "622 ± 257", "unit": "ng/mL"}, {"measurement": "MRT", "setting": "[1]; [4]", "result": "7.84 ± 5.51", "unit": "h"}, {"measurement": "Tmax", "setting": "[1]; [4]", "result": "1.5 ± 0.548", "unit": "h"}, {"measurement": "half-life", "setting": "[1]; [4]", "result": "5.11 ± 4", "unit": "h"}, {"measurement": "AUC(0-inf)", "setting": "[1]; [5]", "result": 52600, "unit": "ng·h/mL"}, {"measurement": "AUC(0-t)", "setting": "[1]; [5]", "result": 52400, "unit": "ng·h/mL"}, {"measurement": "Cmax", "setting": "[1]; [5]", "result": 3350, "unit": "ng/mL"}, {"measurement": "MRT", "setting": "[1]; [5]", "result": "11 ± 6.61", "unit": "h"}, {"measurement": "half-life", "setting": "[1]; [5]", "result": "5.62 ± 2.86", "unit": "h"}, {"measurement": "half-life", "setting": "[1]; both sexes, SD rat, fasted, IV 5 mg/kg, read-out: t1/2 (converted)", "result": "3.61 ± 2.01", "unit": "h"}, {"measurement": "Tmax", "setting": "[1]; both sexes, SD rat, fasted, PO 1 mg/kg, read-out: Tmax", "result": "2.67 ± 1.75", "unit": "h"}, {"measurement": "half-life", "setting": "[1]; both sexes, SD rat, fasted, PO 1 mg/kg, read-out: t1/2 (converted)", "result": "4.94 ± 3.35", "unit": "h"}, {"measurement": "Tmax", "setting": "[1]; both sexes, SD rat, fasted, PO 25 mg/kg, read-out: Tmax", "result": "4.17 ± 2.23", "unit": "h"}, {"measurement": "CL as % of the hepatic blood flow", "setting": "[1]; both, Sprague-Dawley, rat, iv", "result": 16.6, "unit": "%"}, {"measurement": "enzyme activity remaining", "setting": "CYP2D6; 0.08 μM", "result": 103, "unit": "%"}, {"measurement": "enzyme activity remaining", "setting": "CYP2D6; 0.4 μM", "result": "103% and 107%"}, {"measurement": "enzyme activity remaining", "setting": "CYP2D6; 2 μM", "result": "104% and 98.0%"}, {"measurement": "enzyme activity remaining", "setting": "CYP2D6; 10 μM", "result": "98.0% and 98.6%"}, {"measurement": "enzyme activity remaining", "setting": "CYP2D6; 50 μM", "result": "80.0% and 84.5%"}, {"measurement": "IC50", "setting": "CYP2D6; HLM, reversible, without pre-incubation", "result": "> 50", "unit": "µM"}, {"measurement": "IC50", "setting": "OCT2", "result": "> 100", "unit": "µM"}, {"measurement": "calculated R value (OCT2)", "setting": "OCT2", "result": "< 1.1"}, {"measurement": "Percentage transported", "setting": "OCT2; OCT2, compound 0.3 μM", "result": 98.7, "unit": "%"}, {"measurement": "Uptake rate", "setting": "OCT2; OCT2, compound 0.3 μM", "result": "772±136", "unit": "pmol/mg protein/min"}, {"measurement": "Percentage transported", "setting": "OCT2; OCT2, compound 1 μM", "result": 93.3, "unit": "%"}, {"measurement": "Uptake rate", "setting": "OCT2; OCT2, compound 1 μM", "result": "733±47.7", "unit": "pmol/mg protein/min"}, {"measurement": "Percentage transported", "setting": "OCT2; OCT2, compound 3 μM", "result": 95.1, "unit": "%"}, {"measurement": "Uptake rate", "setting": "OCT2; OCT2, compound 3 μM", "result": "746±13.4", "unit": "pmol/mg protein/min"}, {"measurement": "Percentage transported", "setting": "OCT2; OCT2, compound 10 μM", "result": 92.7, "unit": "%"}, {"measurement": "Uptake rate", "setting": "OCT2; OCT2, compound 10 μM", "result": "728±32.8", "unit": "pmol/mg protein/min"}, {"measurement": "Percentage transported", "setting": "OCT2; OCT2, compound 30 μM", "result": 108, "unit": "%"}, {"measurement": "Uptake rate", "setting": "OCT2; OCT2, compound 30 μM", "result": "839±49.9", "unit": "pmol/mg protein/min"}, {"measurement": "Percentage transported", "setting": "OCT2; OCT2, compound 100 μM", "result": 50.8, "unit": "%"}, {"measurement": "Uptake rate", "setting": "OCT2; OCT2, compound 100 μM", "result": "429±46.2", "unit": "pmol/mg protein/min"}, {"measurement": "inhibition at 2 min, 0.3 µM", "setting": "OCT2; human, pH 7.4", "result": 1.28, "unit": "%"}, {"measurement": "inhibition at 2 min, 1 µM", "setting": "OCT2; human, pH 7.4", "result": 6.72, "unit": "%"}, {"measurement": "inhibition at 2 min, 3 µM", "setting": "OCT2; human, pH 7.4", "result": 4.92, "unit": "%"}, {"measurement": "inhibition at 2 min, 10 µM", "setting": "OCT2; human, pH 7.4", "result": 7.34, "unit": "%"}, {"measurement": "inhibition at 2 min, 30 µM", "setting": "OCT2; human, pH 7.4", "result": -8.07, "unit": "%"}, {"measurement": "inhibition at 2 min, 100 µM", "setting": "OCT2; human, pH 7.4", "result": 49.2, "unit": "%"}, {"measurement": "solubility", "setting": "Solubility", "result": 25, "unit": "µg/mL"}]}
